Measured values: patent publication US9113629B2, “4-amino-6-(4-substituted-phenyl)-picolinates and 6-amino-2-(4-substituted-phenyl)-pyrimidine-4-carboxylates and their use as herbicides” (DOW AGROSCIENCES LLC, priority 2013, dated 2015)
Read-outs that look alike come from different tables or passages of the source.

Experiments:
[1] = tested on: Key Broadleaf Weed and Crop Species; experiment: Post-emergent Test II herbicidal activity (Table 5); format: in vivo; conditions: post-emergence, 336 h, 14 days after application; for pest or weed control at 70 g/ha: application rate 70 g ai/ha; for pest or weed control at 140 g/ha: application rate 140 g ai/ha
Outline: (§1)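 Scoring: visual, 0–100% injury at 14 d versus untreated. Treatment: overhead track spray, 187 L/ha, onto plants at the first–second true leaf stage. Growth: greenhouse, ~15 h light, 23–29 °C day, 22–28 °C night.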

[2] = tested on: Key Grass and Sedge Weeds as well as Grass Crops; experiment: Post-emergent Test II herbicidal activity (Table 6); format: in vivo; conditions: post-emergence, 336 h; for pest or weed control at 70 g/ha: 70 g ai/ha; for pest or weed control at 140 g/ha: 140 g ai/ha
Outline: as §1

[3] = ABUTH: velvetleaf (Abutilon theophrasti), read-out: Visual Growth Reduction (%) 14 Days After Application, ABUTH
[4] = AMARE: redroot pigweed (Amaranthus retroflexus), read-out: Visual Growth Reduction (%) 14 Days After Application, AMARE
[5] = BRSNN: oilseed-rape, canola (Brassica napus), read-out: Visual Growth Reduction (%) 14 Days After Application, BRSNN
[6] = CHEAL: lambsquarters (Chenopodium album), read-out: Visual Growth Reduction (%) 14 Days After Application, CHEAL
[7] = EPHHL: wild poinsettia (Euphorbia heterophylla), read-out: Visual Growth Reduction (%) 14 Days After Application, EPHHL
[8] = HELAN: sunflower (Helianthus annuus), read-out: Visual Growth Reduction (%) 14 Days After Application, HELAN
[9] = VIOTR: wild pansy (Viola tricolor), read-out: Visual Growth Reduction (%) 14 Days After Application, VIOTR
[10] = CYPES: yellow nutsedge (Cyperus esculentus), read-out: Visual Growth Reduction (%) 14 Days After Application, CYPES
[11] = DIGSA: crabgrass (Digitaria sanguinalis), read-out: Visual Growth Reduction (%) 14 Days After Application, DIGSA
[12] = ECHCG: barnyardgrass (Echinochloa crus-galli), read-out: Visual Growth Reduction (%) 14 Days After Application, ECHCG
[13] = ORYSA: rice (Oryza sativa), crop, read-out: Visual Growth Reduction (%) 14 Days After Application, ORYSA
[14] = SETFA: giant foxtail (Setaria faberi), read-out: Visual Growth Reduction (%) 14 Days After Application, SETFA
[15] = SORVU: grain sorghum (Sorghum vulgare), read-out: Visual Growth Reduction (%) 14 Days After Application, SORVU
[16] = TRZSS (wheat, Triticum aestivum), crop, read-out: Visual Growth Reduction (%) 14 Days After Application, TRZSS
[17] = ZEAMX: maize, corn (Zea mays), crop, read-out: Visual Growth Reduction (%) 14 Days After Application, ZEAMX

COC(=O)c1nc(-c2ccccc2)c(F)c(N)c1Cl [Compound 181]
85 to 94%: pest or weed control at 70 g/ha [1, 4] | pest or weed control at 70 g/ha [1, 5] | pest or weed control at 70 g/ha [1, 7]
30 to 44%: pest or weed control at 140 g/ha [2, 15] | pest or weed control at 140 g/ha [2, 17]
95 to 100%: pest or weed control at 70 g/ha [1, 3] | pest or weed control at 140 g/ha [1, 3] | pest or weed control at 140 g/ha [1, 4] | pest or weed control at 140 g/ha [1, 5] | pest or weed control at 70 g/ha [1, 6] | pest or weed control at 140 g/ha [1, 6] | pest or weed control at 140 g/ha [1, 7] | pest or weed control at 70 g/ha [1, 8] | pest or weed control at 140 g/ha [1, 8] | pest or weed control at 70 g/ha [2, 10] | pest or weed control at 140 g/ha [2, 10]
0 to 29%: pest or weed control at 70 g/ha [1, 9] | pest or weed control at 140 g/ha [1, 9] | pest or weed control at 70 g/ha [2, 11] | pest or weed control at 140 g/ha [2, 11] | pest or weed control at 70 g/ha [2, 12] | pest or weed control at 140 g/ha [2, 12] | pest or weed control at 70 g/ha [2, 13] | pest or weed control at 140 g/ha [2, 13] | pest or weed control at 70 g/ha [2, 14] | pest or weed control at 140 g/ha [2, 14] | pest or weed control at 70 g/ha [2, 15] | pest or weed control at 70 g/ha [2, 16] | pest or weed control at 140 g/ha [2, 16] | pest or weed control at 70 g/ha [2, 17]
